Source: patent US20210340130A1, “Compositions and methods for treating attention deficit disorders” (priority 2016, published 2021)
Entries after “also recorded” stand apart in the source; their conditions may differ.

Tests used:
[1] = system: hippocampal slices (CA1 population spikes)
Procedure: Slice Seizure Assay In these studies extracellular field potentials recording (Population Spikes) in hippocampal slices were used to determine convulsant activity (potential seizure liability). Transverse 300-400 μm hippocampal slices were taken from adult male Sprague-Dawley rats (4-6 week old) and incubated in a submerge slice recording chamber system for 30 to 60 min. The chamber was perfused with oxygenated artificial cerebral spinal fluid (ACSF) comprising (in mM): NaCl 124, KCl 3.0, KH2PO4 1.25, CaCl2.34, MgSO4 2.5, NaHCO3 26 and glucose 10 at room temperature. Population Spike (PS) recordings were made with glass electrodes filled with 2 M NaCl (1-5 megaohm) places in the region of pyramidal cell body of CA1. Electrical stimuli were produced with twisted bipolar nichrome wire electrodes in the Schaffer-commissural fiber afferents. Population spike was induced by activating Schaffer-commissural fiber using single pulse stimulation with delivered at 0.05 Hz. The maximal amplitude of PS was determined by increase stimulating intensity till second spike appears. Then the intensity was decreased to induce a 50% to 60% of maximal response. The amplitude of PS was measured for each response and plotted against time. At same time the amplitude of second PS and/or number of PS was measured and plotted against time. The size of the second PS and numbers of PS were used to estimate the seizure potential or seizure state. With 20 to 50 min stable baseline established testing compound was perfused for 10 to 20 min at each concentration to observe the effect. […] The perfusion then was switched to control ACSF and continued to record until drug effect was washed back to the baseline. CX717 and CX1739 exemplary test ampakine compounds were prepared by dissolving in DMSO and then added to ACSF.
The upper 3 panels of FIG. 5 show amplitudes for PS 1, 2 and 3 m respectively. Lower panel is the measurement of the number of PS.

[2] = system: cyclothiazide binding site; conditions: cited from earlier work
hippocampal slices = conditions: cited from earlier work
BDNF production = conditions: 16 uM; cited from earlier work
[3] = system: fragile X syndrome patients; conditions: cited from earlier work
schizophrenia patients = conditions: cited from earlier work

picrotoxin [reference compound]
seizure activity (population spikes) ([1]; 50 μM perfusion): induced a seizure like activity at the level of second PS but not third PS

O=C(c1ccc2c(c1)OCCO2)N1CCCCC1 [CX546]
binding to the cyclothiazide binding site [2]: binds to the cyclothiazide binding site | generalized discharges in hippocampal slices (hippocampal slices): produce generalized discharges

O=C1c2cc3c(cc2OC2CCCN12)OCCO3 (stereo not shown) [CX614, reference compound]
seizure / convulsant activity ([1]; 16 uM): demonstrated seizure potential activity; also recorded: unacceptable convulsant activity | BDNF production in hippocampal slices (BDNF production): significantly increases BDNF production

O=C(c1ccc2nccnc2c1)N1CCCCC1 [CX516]
memory, language use, attention, executive and overall functioning [3]: did not exhibit improved memory | binding to the cyclothiazide binding site [2]: does not bind to the cyclothiazide binding site | generalized discharges in hippocampal slices (hippocampal slices): do not | cognition tests versus placebo groups (schizophrenia patients; add-on to clozapine, olanzapine or risperidone, weeks 4 or 8): did not significantly differ | adverse side effects (schizophrenia patients; four weeks treatment): fatigue, epigastric discomfort and insomnia
